For one experiment, the system named is 20032 (donor line of iPSC-derived cardiomyocytes). In words: POD (EC10) for decrease in total cell number (cytotoxicity) vs vehicle; higher = less potent (higher point of departure). The following applies: exposure time: 90 min. Here is the method: (§1)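 Human iPSC-derived cardiomyocytes from 16 donors were exposed for 90 min at 37 °C to each PFAS at 0.1, 1, 10 and 100 µM in 0.5% DMSO, 384-well plates. Kinetic Ca2+ flux (FLIPR) and Hoechst nuclei counts were normalised to vehicle wells and fitted with a hierarchical Bayesian Hill model to give donor-specific PODs: EC05 for beat-rate increase or decrease and for decay-to-rise ratio increase (QT proxy), EC95 for peak-frequency loss (asystole), EC10 for total cell number loss. 0.03 µM is the lower bound.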
In turn, `CN(CCO)S(=O)(=O)C(F)(F)C(F)(F)C(F)(F)C(F)(F)C(F)(F)C(F)(F)C(F)(F)C(F)(F)F` [N-Methyl-N-(2-hydroxyethyl)perfluorooctanesulfonamide] registered a POD vs vehicle greater than 100 µM.
Still for that read-out and setting: the result for `NC(=O)C(F)(F)C(F)(F)C(F)(F)C(F)(F)C(N)=O` [Octafluoroadipamide] reads greater than 100 µM; that for `O=C(O)C(F)(F)C(F)(F)C(F)(F)OC(F)(F)F` [Perfluoro(4-methoxybutanoic)_acid], greater than 100 µM.
Molecule `O=C(O)C(F)(F)C(F)(F)OC(F)(F)F` [Perfluoro-3-methoxypropanoic_acid] yielded a POD vs vehicle greater than 100 µM.
`O=C(O)C(F)(F)C(F)(F)C(F)(F)F` [Perfluorobutanoic_acid] displayed a POD vs vehicle greater than 100 µM.
Same read-out and setting: for `O=C(O)C(F)(F)C(F)(F)C(F)(F)C(F)(F)C(F)(F)C(F)(F)C(F)(F)C(F)(F)C(F)(F)F` [Perfluorodecanoic_acid] the value was 5.59 µM.
Still for that read-out and setting: for `NS(=O)(=O)C(F)(F)C(F)(F)C(F)(F)C(F)(F)C(F)(F)C(F)(F)F` [Perfluorohexanesulfonamide] the value was greater than 100 µM.
On the same count and under the same terms, the result for `O=S(=O)(O)C(F)(F)C(F)(F)C(F)(F)C(F)(F)C(F)(F)C(F)(F)F` [Perfluorohexanesulfonic_acid] reads greater than 100 µM; that for `O=C(O)C(F)(F)C(F)(F)C(F)(F)C(F)(F)C(F)(F)F` [Perfluorohexanoic_acid], greater than 100 µM.

In the next experiment the test system is 20084 (donor line of iPSC-derived cardiomyocytes). Described as above. The following applies: exposure time: 90 min. The protocol: as §1
Molecule `O=C(O)CCC(F)(F)C(F)(F)C(F)(F)C(F)(F)C(F)(F)C(F)(F)C(F)(F)F` [3-Perfluoroheptylpropanoic_acid] registered a POD vs vehicle greater than 100 µM.
The same measure, in the same setting: for `OCCC(F)(F)C(F)(F)C(F)(F)C(F)(F)C(F)(F)C(F)(F)F` [6:2 Fluorotelomer alcohol] the value was greater than 100 µM; for `O=S(=O)(O)CCC(F)(F)C(F)(F)C(F)(F)C(F)(F)C(F)(F)C(F)(F)F` [6:2 Fluorotelomer sulfonic acid], greater than 100 µM; for `OCCC(F)(F)C(F)(F)C(F)(F)C(F)(F)C(F)(F)C(F)(F)C(F)(F)C(F)(F)F` [8:2 Fluorotelomer alcohol], greater than 100 µM.
The same measure, in the same setting: for `O=S(=O)(O)CCC(F)(F)C(F)(F)C(F)(F)C(F)(F)C(F)(F)C(F)(F)C(F)(F)C(F)(F)F` [8:2 Fluorotelomer sulfonic acid] the value was greater than 100 µM.
`O=C(O)C(F)(F)C(F)(F)C(F)(F)C(F)(F)C(F)(F)C(F)(F)C(F)(F)C(F)(F)Cl` [9-Chloro-perfluorononanoic_acid] yielded a POD vs vehicle greater than 100 µM.
On the same count and under the same terms, the result for `O=P(O)(O)CCC(F)(F)C(F)(F)C(F)(F)C(F)(F)C(F)(F)C(F)(F)C(F)(F)C(F)(F)F` [((Perfluorooctyl)ethyl)phosphonic_acid] reads greater than 100 µM; that for `OCC(F)(F)C(F)(F)C(F)(F)C(F)(F)C(F)(F)C(F)F` [Dodecafluoroheptanol], greater than 100 µM; that for `COC(=O)C(F)(F)C(F)(F)OC(F)(C(F)(F)F)C(F)(F)OC(F)=C(F)F` (stereo not given) [Methyl_perfluoro(3-(1-ethenyloxypropan-2-yloxy)propanoate)], greater than 100 µM.
Still for that read-out and setting: the result for `CN(CCO)S(=O)(=O)C(F)(F)C(F)(F)C(F)(F)C(F)(F)C(F)(F)C(F)(F)C(F)(F)C(F)(F)F` [N-Methyl-N-(2-hydroxyethyl)perfluorooctanesulfonamide] reads greater than 100 µM; that for `NC(=O)C(F)(F)C(F)(F)C(F)(F)C(F)(F)C(N)=O` [Octafluoroadipamide], greater than 100 µM.
Molecule `O=C(O)C(F)(F)C(F)(F)C(F)(F)OC(F)(F)F` [Perfluoro(4-methoxybutanoic)_acid] came in with a POD vs vehicle greater than 100 µM.
Same read-out and setting: for `O=C(O)C(F)(F)C(F)(F)OC(F)(F)F` [Perfluoro-3-methoxypropanoic_acid] the value was greater than 100 µM; for `O=C(O)C(F)(F)C(F)(F)C(F)(F)F` [Perfluorobutanoic_acid], greater than 100 µM.
The same measure, in the same setting: for `O=C(O)C(F)(F)C(F)(F)C(F)(F)C(F)(F)C(F)(F)C(F)(F)C(F)(F)C(F)(F)C(F)(F)F` [Perfluorodecanoic_acid] the value was greater than 100 µM; for `NS(=O)(=O)C(F)(F)C(F)(F)C(F)(F)C(F)(F)C(F)(F)C(F)(F)F` [Perfluorohexanesulfonamide], greater than 100 µM; for `O=S(=O)(O)C(F)(F)C(F)(F)C(F)(F)C(F)(F)C(F)(F)C(F)(F)F` [Perfluorohexanesulfonic_acid], greater than 100 µM.
Same read-out and setting: for `O=C(O)C(F)(F)C(F)(F)C(F)(F)C(F)(F)C(F)(F)F` [Perfluorohexanoic_acid] the value was greater than 100 µM.

Another experiment concerns 30145 (donor line of iPSC-derived cardiomyocytes). Described as above. The following applies: exposure time: 90 min. Here is the method: as §1
In the case of `O=C(O)CCC(F)(F)C(F)(F)C(F)(F)C(F)(F)C(F)(F)C(F)(F)C(F)(F)F` [3-Perfluoroheptylpropanoic_acid], the POD vs vehicle is greater than 100 µM.
Same read-out and setting: for `OCCC(F)(F)C(F)(F)C(F)(F)C(F)(F)C(F)(F)C(F)(F)F` [6:2 Fluorotelomer alcohol] the value was greater than 100 µM; for `O=S(=O)(O)CCC(F)(F)C(F)(F)C(F)(F)C(F)(F)C(F)(F)C(F)(F)F` [6:2 Fluorotelomer sulfonic acid], greater than 100 µM.
In the case of `OCCC(F)(F)C(F)(F)C(F)(F)C(F)(F)C(F)(F)C(F)(F)C(F)(F)C(F)(F)F` [8:2 Fluorotelomer alcohol], the POD vs vehicle was greater than 100 µM.
Still for that read-out and setting: for `O=S(=O)(O)CCC(F)(F)C(F)(F)C(F)(F)C(F)(F)C(F)(F)C(F)(F)C(F)(F)C(F)(F)F` [8:2 Fluorotelomer sulfonic acid] the value was greater than 100 µM; for `O=C(O)C(F)(F)C(F)(F)C(F)(F)C(F)(F)C(F)(F)C(F)(F)C(F)(F)C(F)(F)Cl` [9-Chloro-perfluorononanoic_acid], greater than 100 µM.
The same measure, in the same setting: for `O=P(O)(O)CCC(F)(F)C(F)(F)C(F)(F)C(F)(F)C(F)(F)C(F)(F)C(F)(F)C(F)(F)F` [((Perfluorooctyl)ethyl)phosphonic_acid] the value was greater than 100 µM; for `OCC(F)(F)C(F)(F)C(F)(F)C(F)(F)C(F)(F)C(F)F` [Dodecafluoroheptanol], greater than 100 µM; for `COC(=O)C(F)(F)C(F)(F)OC(F)(C(F)(F)F)C(F)(F)OC(F)=C(F)F` (stereo not given) [Methyl_perfluoro(3-(1-ethenyloxypropan-2-yloxy)propanoate)], greater than 100 µM.
The same measure, in the same setting: the result for `CN(CCO)S(=O)(=O)C(F)(F)C(F)(F)C(F)(F)C(F)(F)C(F)(F)C(F)(F)C(F)(F)C(F)(F)F` [N-Methyl-N-(2-hydroxyethyl)perfluorooctanesulfonamide] reads greater than 100 µM; that for `NC(=O)C(F)(F)C(F)(F)C(F)(F)C(F)(F)C(N)=O` [Octafluoroadipamide], greater than 100 µM; that for `O=C(O)C(F)(F)C(F)(F)C(F)(F)OC(F)(F)F` [Perfluoro(4-methoxybutanoic)_acid], greater than 100 µM.
Take `O=C(O)C(F)(F)C(F)(F)OC(F)(F)F` [Perfluoro-3-methoxypropanoic_acid]: the POD vs vehicle was greater than 100 µM.
The same measure, in the same setting: the result for `O=C(O)C(F)(F)C(F)(F)C(F)(F)F` [Perfluorobutanoic_acid] reads greater than 100 µM.
Still for that read-out and setting: for `O=C(O)C(F)(F)C(F)(F)C(F)(F)C(F)(F)C(F)(F)C(F)(F)C(F)(F)C(F)(F)C(F)(F)F` [Perfluorodecanoic_acid] the value was greater than 100 µM; for `NS(=O)(=O)C(F)(F)C(F)(F)C(F)(F)C(F)(F)C(F)(F)C(F)(F)F` [Perfluorohexanesulfonamide], greater than 100 µM; for `O=S(=O)(O)C(F)(F)C(F)(F)C(F)(F)C(F)(F)C(F)(F)C(F)(F)F` [Perfluorohexanesulfonic_acid], greater than 100 µM.
`O=C(O)C(F)(F)C(F)(F)C(F)(F)C(F)(F)C(F)(F)F` [Perfluorohexanoic_acid] showed a POD vs vehicle greater than 100 µM.

For the origin of these results see the supplement of paper PMC11368000.
